Source: patent EP1345943B1, “INHIBITORS OF PAPILLOMA VIRUS” (BOEHRINGER INGELHEIM (CANADA) LTD., priority 2000, dated 2002)

Molecular target: E1-E2-DNA complex (Human papillomavirus 11, UniProt P04015)
Assay: E2-dependent E1 DNA binding assay (E1-E2 DNA assay)
Settings: E1-E2 DNA assay of Example 11, HPV-11
Procedure, shortened: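 SPA-format binding of E1 (about 100-200 ng purified) and E2 (8 ng) to a 0.4 ng [33P]-labelled 400 bp HPV-11 origin probe, in 20 mM Tris pH 7.6, 100 mM NaCl, 1 mM DTT, 1 mM EDTA, for 1 h at room temperature. Complex captured 1 h with anti-E1 C-terminal antiserum on protein A-SPA beads and counted by scintillation; IC50 derived.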

E1-E2-DNA complex, sequence (P04015 whole entry, one chain of several): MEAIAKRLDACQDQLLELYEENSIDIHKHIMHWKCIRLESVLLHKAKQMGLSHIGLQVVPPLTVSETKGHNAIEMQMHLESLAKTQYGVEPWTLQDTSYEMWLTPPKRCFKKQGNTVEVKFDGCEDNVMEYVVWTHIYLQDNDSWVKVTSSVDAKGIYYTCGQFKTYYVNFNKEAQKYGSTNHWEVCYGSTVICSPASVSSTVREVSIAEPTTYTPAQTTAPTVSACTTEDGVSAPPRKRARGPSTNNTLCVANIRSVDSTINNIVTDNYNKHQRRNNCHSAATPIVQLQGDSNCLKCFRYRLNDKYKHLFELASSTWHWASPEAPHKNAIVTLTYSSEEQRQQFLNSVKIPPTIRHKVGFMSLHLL

SMILES | IC50 [µM]
O=C(Nc1ccc(OC(F)(F)F)cc1)C1C(c2ccc(Br)c(Br)c2)OC2(C(=O)c3ccccc3C2=O)C1C(=O)O (stereo not drawn) [Compound 1118] | 0.5 to 5
O=C(Nc1cccc(Cl)c1)C1C(c2ccc(Br)c(Br)c2)OC2(C(=O)c3ccccc3C2=O)C1C(=O)O (stereo not drawn) [Compound 1119] | < 0.5
O=C(Nc1cc(F)cc(F)c1)C1C(c2ccc(F)c(Cl)c2)OC2(C(=O)c3ccccc3C2=O)C1C(=O)O (stereo not drawn) [Compound 1120] | 0.5 to 5
O=C(Nc1ccc(Br)c(Cl)c1)C1C(c2ccc(F)c(Cl)c2)OC2(C(=O)c3ccccc3C2=O)C1C(=O)O (stereo not drawn) [Compound 1121] | 0.5 to 5
O=C(Nc1ccc(F)c(F)c1)C1C(c2ccc(F)c(Cl)c2)OC2(C(=O)c3ccccc3C2=O)C1C(=O)O (stereo not drawn) [Compound 1122] | 5 to 50
O=C(Nc1ccccc1Cl)C1C(c2ccc(Cl)c(Cl)c2)OC2(C(=O)c3ccccc3C2=O)C1C(=O)O (stereo not drawn) [Compound 1123] | < 0.5
COc1ccccc1NC(=O)C1C(c2ccc(Cl)c(Cl)c2)OC2(C(=O)c3ccccc3C2=O)C1C(=O)O (stereo not drawn) [Compound 1124] | 0.5 to 5
O=C(Nc1ccccc1F)C1C(c2ccc(Cl)c(Cl)c2)OC2(C(=O)c3ccccc3C2=O)C1C(=O)O (stereo not drawn) [Compound 1125] | < 0.5
Cc1cc(C)cc(NC(=O)C2C(c3ccc(Cl)c(Cl)c3)OC3(C(=O)c4ccccc4C3=O)C2C(=O)O)c1 (stereo not drawn) [Compound 1126] | 0.5 to 5
N#Cc1cccc(NC(=O)C2C(c3ccc(Cl)c(Cl)c3)OC3(C(=O)c4ccccc4C3=O)C2C(=O)O)c1 (stereo not drawn) [Compound 1127] | 0.5 to 5
COc1ccc2c(c1)C(=O)C1(OC(c3ccc(Cl)c(Cl)c3)C(C(=O)Nc3ccc(C(C)=O)cc3)C1C(=O)O)C2=O (stereo not drawn) [Compound 1129] | 5 to 50
COc1ccc2c(c1)C(=O)C1(OC(c3ccc(Cl)c(Cl)c3)C(C(=O)Nc3ccc(C(C)=O)cc3)C1C(=O)O)C2=O (stereo not drawn) [Compound 1130] | 5 to 50
O=C(Nc1ccc(OC(F)(F)F)cc1)C1C(c2ccc(F)c(Cl)c2)OC2(C(=O)c3ccccc3C2=O)C1C(=O)O (stereo not drawn) [Compound 1131] | 0.5 to 5
Cc1ccc(NC(=O)C2C(c3ccc(F)c(F)c3)OC3(C(=O)c4ccccc4C3=O)C2C(=O)O)cc1 (stereo not drawn) [Compound 1132] | 5 to 50
O=C(Nc1ccc(Cl)c(Cl)c1)C1C(c2ccc(Br)c(Br)c2)OC2(C(=O)c3ccccc3C2=O)C1C(=O)O (stereo not drawn) [Compound 1134] | < 0.5
O=C(NCCc1ccccc1Cl)C1C(c2ccc(Cl)c(Cl)c2)OC2(C(=O)c3ccccc3C2=O)C1C(=O)O (stereo not drawn) [Compound 1135] | < 0.5
CCOc1ccccc1NC(=O)C1C(c2ccc(Cl)c(Cl)c2)OC2(C(=O)c3ccccc3C2=O)C1C(=O)O (stereo not drawn) [Compound 1136] | 5 to 50
COc1ccc(OC)c(CCNC(=O)C2C(c3ccc(Cl)c(Cl)c3)OC3(C(=O)c4ccccc4C3=O)C2C(=O)O)c1 (stereo not drawn) [Compound 1137] | 0.5 to 5
O=C(NCCc1cccs1)C1C(c2ccc(Cl)c(Cl)c2)OC2(C(=O)c3ccccc3C2=O)C1C(=O)O (stereo not drawn) [Compound 1138] | < 0.5

SMILES | IC50 [µM]
O=C(Nc1ccccc1OC(F)(F)F)C1C(c2ccc(Cl)c(Cl)c2)OC2(C(=O)c3ccccc3C2=O)C1C(=O)O (stereo not drawn) [Compound 1139] | 0.5 to 5
CN(CCN(C)c1ccc([N+](=O)[O-])c2nonc12)C(=O)CNCc1ccc(NC(=O)C2C(c3ccc(Cl)c(Cl)c3)OC3(C(=O)c4ccccc4C3=O)C2C(=O)O)cc1 (stereo not drawn) [Compound 1140] | 0.5 to 5
CCCCC(=O)Nc1cc(C2OC3(C(=O)c4ccccc4C3=O)C(C(=O)O)C2C(=O)Nc2ccc(C(C)=O)cc2)ccc1Cl (stereo not drawn) [Compound 1141] | 0.5 to 5
O=C(Nc1ccccc1Br)C1C(c2cc(Cl)cc(Cl)c2)OC2(C(=O)c3ccccc3C2=O)C1C(=O)O (stereo not drawn) [Compound 1142] | < 0.5
O=C(Nc1ccc(N2CCOCC2)cc1)C1C(c2ccc(Br)c(Br)c2)OC2(C(=O)c3ccc(F)cc3C2=O)C1C(=O)O (stereo not drawn) [Compound 1143] | < 0.5
O=C(Nc1ccc(N2CCOCC2)cc1)C1C(c2ccc(Br)c(Br)c2)OC2(C(=O)c3ccc(F)cc3C2=O)C1C(=O)O (stereo not drawn) [Compound 1144] | < 0.5
O=C1C2C(c3ccc(Cl)cc3)OC3(C(=O)c4ccccc4C3=O)C2C(=O)N1c1ccc2c(c1)OCO2 (stereo not drawn) [Compound 2001] | 5 to 50
COc1ccc(N2C(=O)C3C(c4ccc(Cl)cc4)OC4(C(=O)c5ccccc5C4=O)C3C2=O)cc1OC (stereo not drawn) [Compound 2002] | 5 to 50
CC(=O)c1ccc(N2C(=O)C3C(c4ccc(Cl)cc4)OC4(C(=O)c5ccccc5C4=O)C3C2=O)cc1 (stereo not drawn) [Compound 2003] | 5 to 50
O=C1C2C(c3ccc(Cl)cc3)OC3(C(=O)c4ccccc4C3=O)C2C(=O)N1c1ccc(F)cc1 (stereo not drawn) [Compound 2004] | 5 to 50
O=C1C2C(c3cccc(Cl)c3)OC3(C(=O)c4ccccc4C3=O)C2C(=O)N1c1ccc2c(c1)OCO2 (stereo not drawn) [Compound 2005] | 0.5 to 5
Cc1ccc(N2C(=O)C3C(c4ccc(Cl)cc4)OC4(C(=O)c5ccccc5C4=O)C3C2=O)cc1 (stereo not drawn) [Compound 2006] | 5 to 50
O=C1C2C(c3ccc(Cl)cc3)OC3(C(=O)c4ccccc4C3=O)C2C(=O)N1c1ccc(Cl)cc1 (stereo not drawn) [Compound 2007] | 5 to 50
O=C1C2C(c3ccc(C(F)(F)F)cc3)OC3(C(=O)c4ccccc4C3=O)C2C(=O)N1c1ccc2c(c1)OCO2 (stereo not drawn) [Compound 2008] | 5 to 50
O=C1C2C(c3ccc(Cl)cc3)OC3(C(=O)c4ccccc4C3=O)C2C(=O)N1c1cccc(Cl)c1 (stereo not drawn) [Compound 2009] | 5 to 50
Cc1cccc(N2C(=O)C3C(c4ccc(Cl)cc4)OC4(C(=O)c5ccccc5C4=O)C3C2=O)c1 (stereo not drawn) [Compound 2010] | 5 to 50
O=C1C2C(c3ccc(Cl)cc3)OC3(C(=O)c4ccccc4C3=O)C2C(=O)N1c1cccc(C(F)(F)F)c1 (stereo not drawn) [Compound 2011] | 5 to 50
O=C1C2C(c3ccc(Cl)cc3)OC3(C(=O)c4ccccc4C3=O)C2C(=O)N1c1ccc2c(c1)CCC2 (stereo not drawn) [Compound 2012] | 5 to 50
Cc1cccc(C2OC3(C(=O)c4ccccc4C3=O)C3C(=O)N(c4ccc5c(c4)OCO5)C(=O)C23)c1 (stereo not drawn) [Compound 2014] | 5 to 50

SMILES | IC50 [µM]
O=C1C2C(c3ccc(Cl)cc3)OC3(C(=O)c4ccccc4C3=O)C2C(=O)N1c1ccc(C(F)(F)F)cc1 (stereo not drawn) [Compound 2015] | 5 to 50
CC(C)(C)OC(=O)Nc1ccc(N2C(=O)C3C(c4ccc(Cl)c(Cl)c4)OC4(C(=O)c5ccccc5C4=O)C3C2=O)cc1 (stereo not drawn) [Compound 2018] | 5 to 50
Nc1ccc(N2C(=O)C3C(c4ccc(Cl)c(Cl)c4)OC4(C(=O)c5ccccc5C4=O)C3C2=O)cc1 (stereo not drawn) [Compound 2019] | 0.5 to 5
O=C1C2C(c3ccc(Cl)c(Cl)c3)OC3(C(=O)c4ccccc4C3=O)C2C(=O)N1c1ccc(O)cc1 (stereo not drawn) [Compound 2021] | < 0.5
O=C(CNCc1ccc(N2C(=O)C3C(c4ccc(Cl)c(Cl)c4)OC4(C(=O)c5ccccc5C4=O)C3C2=O)cc1)NCCNc1cccc2c(S(=O)(=O)O)cccc12 (stereo not drawn) [Compound 2022] | 5 to 50
O=C1C2C(c3ccc(Br)c(Br)c3)OC3(C(=O)c4ccccc4C3=O)C2C(=O)N1c1ccc(N2CCOCC2)cc1 (stereo not drawn) [Compound 2023] | < 0.5
CC(NC(=O)C1C(c2ccc(Cl)c(Cl)c2)OC23C(=O)c4ccccc4C2(O)OC(=O)C13)c1ccccc1 (stereo not drawn) [Compound 3100] | 5 to 50
O=C(Nc1ccc2c(c1)OCO2)C1C(c2ccc3ccccc3c2)OC2(C(=O)c3ccccc3C2=O)C1C(=O)O (stereo not drawn) [Compound 4001] | 0.5 to 5
O=C(Nc1ccc2c(c1)OCO2)C1C(c2cc3ccccc3o2)OC2(C(=O)c3ccccc3C2=O)C1C(=O)O (stereo not drawn) [Compound 4002] | 5 to 50
O=C(Nc1ccc2c(c1)OCO2)C1C(c2ccc3c(c2)OCO3)OC2(C(=O)c3ccccc3C2=O)C1C(=O)O (stereo not drawn) [Compound 4003] | 5 to 50
CC(=O)c1ccc(NC(=O)C2C(c3ccc4ccccc4c3)OC3(C(=O)c4ccccc4C3=O)C2C(=O)O)cc1 (stereo not drawn) [Compound 4004] | 0.5 to 5
CC(=O)c1ccc(NC(=O)C2C(C=Cc3cccc(Br)c3)OC3(C(=O)c4ccccc4C3=O)C2C(=O)O)cc1 (stereo not drawn) [Compound 4006] | 5 to 50
CC(=O)c1ccc(NC(=O)C2C(C=Cc3ccccc3Br)OC3(C(=O)c4ccccc4C3=O)C2C(=O)O)cc1 (stereo not drawn) [Compound 4007] | 0.5 to 5
CC(=O)c1ccc(NC(=O)C2C(C=Cc3cccc(Cl)c3Cl)OC3(C(=O)c4ccccc4C3=O)C2C(=O)O)cc1 (stereo not drawn) [Compound 4010] | 0.5 to 5
CC(=O)c1ccc(NC(=O)C2C(C=Cc3ccccc3C)OC3(C(=O)c4ccccc4C3=O)C2C(=O)O)cc1 (stereo not drawn) [Compound 4011] | 5 to 50
O=C(NCc1ccc2c(c1)OCO2)C1C(c2ccc(Cl)c(Cl)c2)OC2(C(=O)c3ccccc3C2=O)C1C(=O)O (stereo not drawn) [Compound 6001] | 5 to 50
Cc1ccc2c(c1)C(=O)C1(OC(c3ccc(Br)c(Br)c3)C(C(=O)Nc3ccc(-c4csnn4)cc3)C1C(=O)O)C2=O (stereo not drawn) [Compound A1009] | 5 to 50
CC(=O)c1ccc(NC(=O)C2C(c3ccc(Cl)c(Cl)c3)OC34C(=O)c5sc(C)cc5C3(O)OC(=O)C24)cc1 (stereo not drawn) [Compound C1001] | 5 to 50
Cc1cc2c(s1)C(=O)C13OC(c4ccc(Br)c(Br)c4)C(C(=O)Nc4ccc(CNC(=O)OC(C)(C)C)cc4)C1C(=O)OC23O (stereo not drawn) [Compound C1003] | 0.5 to 5
